Test results published in patent US8603818B1, “TGF-beta receptor inhibitors to enhance direct reprogramming” (The General Hospital Corporation, priority 2008, dated 2013).
Read-outs that look alike come from different tables or passages of the source.

Assays:
[1] = tested on: four-factor infected MEFs; assay: iPSC induction in four-factor infected MEFs (dox-inducible lentiviruses); format: cell-based, mice; settings: for efficiency of iPSC formation / iPSC colonies per well: 1 ng/mL ligand during dox induction, dox 12d, counts day 16
Description: 2A. Alkaline phosphatase stain for primary iPSC colonies, treated with or without the Alk5 inhibitor (1 μM) during dox induction. MEFs were infected with four factors and colonies were stained on day 12 (8d+dox/4d−dox).
2B. Kinetics of reprogramming in MEFs infected with four factors.
2D. Dose-response curve for the Alk5 inhibitor in MEFs induced with four factors.
2E Effect of TGF-β ligands in reprogramming, using four-factor infected MEFs (dox for 12d; counts on day 16 based on Oct4 immunostaining). TGF-β concentrations: low, 1 ng/mL; medium, 2.5 ng/mL; high, 5 ng/mL.
2F. Timing of Alk5 inhibitor action. The Alk5 inhibitor (1 μM) was applied in 4-day time intervals. Control=no inhibitor, Full-time=inhibitor added days 1-16.
2G. […] Inhibitor (1 μM) was applied for either 3 days before (−3 to 0d) or during the first 3 days of dox induction (0 to +3d), or both (−3d to +3d). Control=no inhibitor.
To induce reprogramming, MEFs were infected with a reverse tetracycline transactivator (rtTA) transgene with doxycycline-inducible lentiviruses encoding the four reprogramming factors as previously described (Stadtfeld, M., et al., (2008) Cell Stem Cell 2, 230-240).
It was next sought to establish a dose-response curve for the Alk5 inhibitor. Using four-factor infected MEFs, concentrations of the Alk5 inhibitor were tested over a 1000-fold range, from 4 nM to 4 μM. […] To verify that manipulation of TGF-β signaling affects reprogramming, it was investigated whether pathway activation would inhibit iPSC formation. Using four-factor infected MEFs, increasing concentrations of TGF-β1 or TGF-β2 were applied during the time of dox induction.
To gain further insight into the mode of action of the Alk5 inhibitor, the temporal window during which the inhibitor elicited its strongest effect was examined. In four-factor infected MEFs, the inhibitor was applied in 4-day intervals from days 0-16 of reprogramming. […] To test this, the inhibitor was applied in 3-day time intervals: before dox administration (days −3 to 0) to test for a priming effect, during the first 3 days of reprogramming (days 0 to +3) as a control for the efficiency increase, during both intervals (days−3 to +3) to test for a synergistic effect, and a no-inhibitor control as a baseline measure (FIG. 1G).

[2] = tested on: Sox2-GFP fibroblasts
From the text: 1A. Effect of Alk5 inhibitor treatment on the number of Sox2-GFP+iPS colonies
Fibroblasts cultures were established from mice expressing green-fluorescent protein (GFP) from the genomic locus of the pluripotency gene Sox2. Sox2-GFP fibroblasts were then infected with viruses expressing the reprogramming factors c-Myc, Klf4, Oct4 and Sox2 in the presence and absence of a chemical inhibitor highly specific for the TGF-beta receptor Alk5 (ALK5 inhibitor H). GFP+colonies with embryonic stem (ES) cell morphology were scored 20 days after infection.

[3] = tested on: secondary STEMCCA MEFs; assay: Dose-response of iPSC induction in secondary STEMCCA MEFs; format: cell-based, mice
From the text: 3B. Dose-response curve for the Alk5 inhibitor in secondary STEMCCA MEFs.
Secondary STEMCCA MEFs were used to establish another dose-response curve for the Alk5 inhibitor.

[4] = tested on: MEFs infected with OSK or OSMK; settings: inhibitor 1 μM
From the text: 7A. […] Cells were counted at each timepoint noted, and values represent the fractional change in cell number: (fraction of starting cell number at timepoint b−fraction of starting cell number at timepoint a)/time between b and a.
In support of this, it has been shown that activation of TGF-β signaling can promote an epithelial-to-mesenchymal transition (Valcourt, U., et al., (2005) Mol Biol Cell 16, 1987-2002); fibroblast reprogramming involves a mesenchymal-to-epithelial conversion, which may be enhanced by inhibition of the TGF-β signaling pathway.

[5] = tested on: Secondary cells carrying the polycistronic STEMCCA construct; settings: dox 2 days; inhibitor 1 μM
Description: 7B. Annexin V and propidium iodide (PI) staining to quantify apoptosis during iPSC induction. […] Annexin V-positive and PI-negative cells represent the fraction of living cells in the process of apoptosis.
Annexin V and propidium iodide staining was done using the Annexin V-FITC kit (BD Pharmingen, 556547) according to manufacturer directions. Cells were analyzed by flow cytometry on a FACSCalibur (BD).

[6] = tested on: Sox2, cMyc, Nanog expression in infected MEFs
Description: MEFs were infected with various factor combinations, then treated with dox for three days in the presence or absence of […] Alk5 inhibitor (1 μM). qPCR analysis was done using primers that specifically detect endogenous Sox2 or cMyc, as well as total Nanog. Experiments were done with both biological and technical triplicates, and a Student's T-test (paired, two-tailed) was used to assess statistical significance.
RNA was extracted by using a Qiagen RNeasy kit (74104), then converted to cDNA with the Superscript III First-Strand synthesis system (Invitrogen) using oligo-dT primers. qRT-PCRs were carried out using Brilliant II SYBR Green mix (Stratagene) and run on a Stratagene MXPro400. Reactions were carried out in duplicate with -RT controls, and data were analyzed using the delta-delta Ct method.

[7] = tested on: human fibroblast; settings: data not shown
[8] = tested on: embryonic stem cells+MEFs; assay: Reprogramming by cell fusion; settings: data not shown
[9] = tested on: secondary MEF lines; settings: inhibitor 2 μM, colonies day 16
Description: Kinetics of reprogramming in two secondary MEF lines. Dox was applied for either 4, 6, 8, or 10 days, with or without the Alk5 inhibitor (2 μM). Colonies were quantified on day 16 based on morphology and dox independence.
To this end, we employed a “secondary system” consisting of MEFs isolated from iPSC-derived chimeras.
In two different secondary MEF lines, the effect of Alk5 inhibition on both the efficiency and kinetics of reprogramming was tested. In this experiment, dox was applied for 4, 6, 8, or 10 days, either in the presence or absence of the Alk5 inhibitor, then quantified iPSC colony number on day 16.

[10] = tested on: primary MEFs; assay: Replacement of reprogramming factors in primary MEFs infected with factor combinations (OSK, OMK, OK)
Description: Replacement of the role of cMyc with the Alk5 inhibitor (1 μM). MEFs were infected with either three (OSK) or four (OSMK) factors. Dox was withdrawn on day 8 and colonies were quantified on day 12 based on morphology and dox independence.
Replacement of the role of Sox2 with the Alk5 inhibitor (1 μM). MEFs were infected with three (OMK) or two (OK) factors and induced with dox for 16 days, then split on day 18 into media without dox. Image depicts alkaline phosphatase stain of passage 1 cultures.
Experiments were designed to investigate whether the Alk5 inhibitor could function to replace exogenous expression of any of the reprogramming factors. To this end, primary MEFs were infected with different combinations of the four factors in the presence or absence of inhibitor (FIG. 4) and then scored for iPSC formation.
For all of the other replacement conditions, dox was withdrawn on day 16, which would provide sufficient time for reprogramming. […] Nonetheless, colonies were picked from both conditions and tested for their potential to form dox-independent lines.

[11] = 2.5 ng/mL ligand during dox induction
[12] = 5 ng/mL ligand during dox induction

TGF-β1: TGF-β ligand obtained from Peprotech
efficiency of iPSC formation [1]: ~0.0013% | iPSC colonies per well [1]: one | iPSC formation [1, 11]: undetectable | iPSC formation [1, 12]: undetectable

Cc1cccc(-c2n[nH]cc2-c2ccc3ncccc3n2)n1 [Alk5 inhibitor, 2-(3-(6-Methylpyridin-2-yl)-1H-pyrazol-4-yl)-1,5 napththyridine]
fold more GFP+ colonies with ES cell morphology ([2]; four factors, scored 20 days after infection, versus absence of inhibitor): 5-10 fold | onset of GFP expression in colonies ([2]; versus colonies formed in the absence of the chemical): earlier | effect of inhibitor use during reprogramming on the resulting iPSCs (pluripotency markers, teratoma) ([1]; 4-day iPSCs): no adverse effect | frequency of iPSC colonies ([1]; four days of dox, inhibitor 2 μM, counted day 16): 0.0013% | enhancement in number of iPSC colonies ([1]; highest dose tested (range 4 nM to 4 μM), dox and inhibitor 8 days, Oct4 immunostaining day 12): 30 fold | reprogramming efficiency by timing of inhibitor ([1]; inhibitor 1 μM applied after dox withdrawal (day 12)): no effect | reprogramming efficiency by timing of inhibitor ([1]; inhibitor 1 μM applied during 5-8 day interval): strong enhancement | reprogramming efficiency by timing of inhibitor ([1]; inhibitor 1 μM applied during first four days, dox withdrawn day 12, counts day 16): largest increase in efficiency | number of iPSC colonies (alkaline phosphatase stain) ([1]; inhibitor 1 μM during dox induction, stained day 12 (8d+dox/4d−dox)): striking increase | enhancement in efficiency ([1]; inhibitor 1 μM during first 3 days of factor expression (0 to +3d)): −5 fold | increase in efficiency ([1]; inhibitor 1 μM in −3d/+3d group): comparable to the 0 to +3d group | reprogramming efficiency, priming test ([1]; inhibitor 1 μM prior to factor expression (days 3 to 0), dox withdrawn day 8, counts day 12): slight reduction in efficiency | iPSC formation ([1]; three days of dox, inhibitor 2 μM, counted day 16): not obtained | increase in efficiency at maximum ([3]; at 0.5 μM): ~60 fold | efficiency at higher doses ([3]; doses above the maximum): began to decline | concentration giving maximum efficiency ([3]; dox and inhibitor 8 days, Oct4 immunostaining day 12): 0.5 µM | proliferation during reprogramming ([4]; around day 6): decrease in proliferation | cell number early in reprogramming ([4]; day 2): mitigated the decrease in cell number | apoptosis, Annexin V staining, inhibitor-treated versus untreated cells [5]: negligible difference | induction of cMyc ([6]; cells infected with OSK, dox three days, inhibitor 1 μM): 1.3 fold | change in expression of other genes (Sox2: OMK, OSMK; cMyc: OSMK; Nanog: OMK, OSK, OSMK) ([6]; dox three days, inhibitor 1 μM): No other genes showed a statistically significant change | induction of Sox2 or cMyc ([6]; other cells (OMK or OSMK)): no significant induction | increase in the efficiency of human fibroblast reprogramming [7]: not observed | effect on reprogramming by cell fusion [8]: negative result | increase in reprogramming ([9]; one secondary MEF line): 2 fold | increase in reprogramming ([9]; the other secondary MEF line): 30 fold | colony formation in the absence of both cMyc and Sox2 ([10]; OK + inhibitor 1 μM): could not be obtained | dox-independent colonies after passage without dox ([10]; OMK+inhibitor 1 μM): gave rise to dox-independent colonies | colony formation in cMyc replacement condition ([10]; OSK+inhibitor, day 8): colonies were observed | picked colonies forming dox-independent iPSC lines ([10]; Sox2 replacement condition (OMK), inhibitor-treated culture): 3/22 | colonies morphologically identical to iPSCs ([10]; Sox2 replacement condition (OMK), inhibitor-treated culture, dox 16 days): 50 colonies | efficiency of OSK+inhibitor relative to four factors alone (OSK+M) ([10]; inhibitor 1 μM, dox withdrawn day 8, colonies day 12): 2.5 fold

B1: TGF-β2: TGF-β ligand obtained from Peprotech (protein, UniProt P61812 303-414, looked up)
Transforming growth factor …: ALDAAYCFRNVQDNCCLRPLYIDFKRDLGWKWIHEPKGYNANFCAGACPYLWSSDTQHSRVLSLYNTINPEASASPCCVSQDLEPLTILYYIGKTPKIEQLSNMIVKSCKCS
efficiency of iPSC formation [1]: ~0.0013% | iPSC colonies per well [1]: one | iPSC formation [1, 11]: undetectable | iPSC formation [1, 12]: undetectable
